# Measured values taken from patent US10626094B2 (La Jolla Institute of Allergy & Immunology, priority 2014, dated 2020).
# Target: LMPTP-A (Low Molecular Weight Protein Tyrosine Phosphatase-A) enzyme (Homo sapiens (Human), UniProt P24666)
# Experiment: LMPTP primary screening / LMPTP (OMFP) enzyme inhibition assay, fluorescence intensity
# Assay type: biochemical
# Settings: LMPTP-A, OMFP substrate, method of Example 2; read-out: IC50
# Outline: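 0.625 nM LMPTP-A with 400 μM OMFP substrate in 50 mM Bis-Tris pH 6.0, 1 mM DTT, 0.01% Triton X-100, […]. Compounds at 20 μM final. Incubated 50 min at room temperature in the dark; fluorescence intensity read.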
# Chain of LMPTP-A (Low Molecular Weight Protein Tyrosine Phosphatase-A) enzyme (P24666 whole entry): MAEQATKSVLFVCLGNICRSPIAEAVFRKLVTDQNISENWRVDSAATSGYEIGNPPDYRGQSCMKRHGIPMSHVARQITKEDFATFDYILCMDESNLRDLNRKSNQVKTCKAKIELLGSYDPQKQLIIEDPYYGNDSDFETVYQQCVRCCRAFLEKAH
row,SMILES,IC50 [nM]
1,COc1cccc(F)c1-c1cc(NCCCN2CCCCC2)c2ccccc2n1 [Compound I164],801 to 5000
2,"FC(F)(F)Oc1ccccc1-c1cc(NCCCC2CCCNC2)c2ccccc2n1 (stereo not shown) [Compound I166, (3-piperidylpropyl){2-[2-(trifluoromethoxy)phenyl](4-quinolyl)}amine]",200 to 800
3,"c1ccc2c(NCCCN3CCCCC3)cc(-c3ccc4c(c3)OCO4)nc2c1 [Compound I167, (2-(2H-benzo[3,4-d]1,3-dioxolen-5-yl)(4-quinolyl))(3-piperidylpropyl)amine]",801 to 5000
4,CSc1ccc(-c2cc(NCCCN3CCCCC3)c3ccccc3n2)cc1 [Compound I169],801 to 5000
5,COc1cccc(OC)c1-c1cc(NCCCN2CCCCC2)c2ccccc2n1 [Compound I172],> 5000
6,COc1ccc(OC)c(-c2cc(NCCCN3CCCCC3)c3ccccc3n2)c1 [Compound I173],801 to 5000
7,COc1ccc(-c2cc(NCCCN3CCCCC3)c3ccccc3n2)c(OC)c1 [Compound I174],801 to 5000
8,"c1c[nH]c(-c2cc(NCCCC3CCCNC3)c3ccccc3n2)c1 (stereo not shown) [Compound I175, (3-piperidylpropyl)(2-pyrrol-2-yl(4-quinolyl))amine]",801 to 5000
9,"Cc1nc(C)c(-c2cc(NCCCC3CCCNC3)c3ccccc3n2)s1 (stereo not shown) [Compound I176, [2-(2,4-dimethyl(1,3-thiazol-5-yl))(4-quinolyl)](3-piperidylpropyl)amine]",801 to 5000
10,"c1ccc2c(NCCCC3CCCNC3)cc(-c3ccoc3)nc2c1 (stereo not shown) [Compound I177, (2-(3-furyl)(4-quinolyl))(3-piperidylpropyl)amine]",801 to 5000
11,Cn1ccc(-c2cc(NCCCN3CCCCC3)c3ccccc3n2)n1 [Compound I178],> 5000
12,"c1ccc(-c2cc(NCCCN3CCOCC3)c3ccccc3n2)cc1 [Compound I179, (3-morpholin-4-ylpropyl)(2-phenyl(4-quinolyl))amine]",> 5000
13,"c1ccc(-c2cc(NCCN3CCCC3)c3ccccc3n2)cc1 [Compound I181, (2-phenyl(4-quinolyl))(2-pyrrolidinylethyl)amine]",> 5000
14,"CN(C)CCNc1cc(-c2ccccc2)nc2ccccc12 [Compound I183, dimethyl{2-[(2-phenyl(4-quinolyl))amino]ethyl}amine]",> 5000
15,"c1ccc(-c2nc(NCCN3CCOCC3)c3ccccc3n2)cc1 [Compound I184, (2-morpholin-4-ylethyl)(2-phenylquinazolin-4-yl)amine]",> 5000
16,"Fc1ccc(-c2cc(NCCCC3CCCNC3)c3ccccc3n2)cc1 (stereo not shown) [Compound I188, [2-(4-fluorophenyl)(4-quinolyl)](3-piperidylpropyl)amine]",801 to 5000
17,O=C(NCCc1ccncc1)c1ccc(-c2cc(NCCCN3CCCCC3)c3ccccc3n2)cc1 [Compound I189],200 to 800
18,CCN(CC)CCCNC(=O)c1ccc(-c2cc(NCCCN3CCCCC3)c3ccccc3n2)cc1 [Compound I190],200 to 800
19,O=C(NCCN1CCCCC1)c1ccc(-c2cc(NCCCN3CCCCC3)c3ccccc3n2)cc1 [Compound I191],200 to 800
20,O=C(NCCCN1CCOCC1)c1ccc(-c2cc(NCCCN3CCCCC3)c3ccccc3n2)cc1 [Compound I192],200 to 800

row,SMILES,IC50 [nM]
1,"O=C(c1ccc(-c2cc(NCCCN3CCCCC3)c3ccccc3n2)cc1)N1CCNCC1 [Compound I193, piperazinyl 4-{4-[(3-piperidylpropyl)amino](2-quinolyl)}phenyl ketone]",200 to 800
2,"O=C(c1ccc(-c2cc(NCCCN3CCCCC3)c3ccccc3n2)cc1)N1CCCCC1 [Compound I194, piperidyl 4-{4-[(3-piperidylpropyl)amino](2-quinolyl)}phenyl ketone]",801 to 5000
3,NCCCNC(=O)c1ccc(-c2cc(NCCCN3CCCCC3)c3ccccc3n2)cc1 [Compound I195],200 to 800
4,O=C(NC1CCNCC1)c1ccc(-c2cc(NCCCN3CCCCC3)c3ccccc3n2)cc1 [Compound I196],200 to 800
5,O=C(NCC1CCNCC1)c1ccc(-c2cc(NCCCN3CCCCC3)c3ccccc3n2)cc1 [Compound I197],200 to 800
6,O=C(NCCCN1CCCCC1)c1ccc(-c2cc(NCCCN3CCCCC3)c3ccccc3n2)cc1 [Compound I198],200 to 800
7,"COc1ccc(-c2cc(NCCc3ccccn3)c3ccccc3n2)cc1 [Compound I199, [2-(4-methoxyphenyl)(4-quinolyl)](2-(2-pyridyl)ethyl)amine]",801 to 5000
8,"COc1ccc(-c2cc(NCCCc3ccncc3)c3ccccc3n2)cc1 [Compound I200, [2-(4-methoxyphenyl)(4-quinolyl)](3-(4-pyridyl)propyl)amine]",801 to 5000
9,"COc1ccc(-c2cc(NCCc3ccncc3)c3ccccc3n2)cc1 [Compound I201, [2-(4-methoxyphenyl)(4-quinolyl)](2-(4-pyridyl)ethyl)amine]",801 to 5000
10,Clc1cccc(-c2cc(NCCCc3cccnc3)c3ccccc3n2)c1 [Compound I202],801 to 5000
11,COc1ccc(-c2cc(NCCCc3cccnc3)c3ccccc3n2)cc1 [Compound I203],801 to 5000
12,"Fc1cc(Cl)ccc1-c1cc(NCCCc2cccnc2)c2ccccc2n1 [Compound I204, [2-(4-chloro-2-fluorophenyl)(4-quinolyl)](3-(3-pyridyl)propyl)amine]",801 to 5000
13,c1ccc2c(NCCCN3CCCCC3)cc(-c3ccc(-c4nn[nH]n4)cc3)nc2c1 [Compound I205],801 to 5000
14,"CCN1CCN(Cc2ccc(Nc3cc(-c4ccc(OC)cc4)nc4c3CCCC4)cc2)CC1 [Compound I206, {4-[(4-ethylpiperazinyl)methyl]phenyl}[2-(4-methoxyphenyl)(4-5,6,7,8-tetrahydroquinolyl)]amine]",801 to 5000
15,COc1ccc(-c2cc(NCCCN3CCCCC3)c3c(n2)CCCC3)cc1 [Compound I208],801 to 5000
16,"COc1ccc(-c2cc(Nc3cccc(CN4CCCC4)c3)c3c(n2)CCCC3)cc1 [Compound I209, [2-(4-methoxyphenyl)(4-5,6,7,8-tetrahydroquinolyl)][3-(pyrrolidinylmethyl)phenyl]amine]",801 to 5000
17,"COc1ccc(-c2cc(NCc3ccc(CN4CCCCC4)cc3)c3ccccc3n2)cc1 [Compound I210, [2-(4-methoxyphenyl)(4-quinolyl)]{[4-(piperidylmethyl)phenyl]methyl}amine]",801 to 5000
18,"COc1ccc(-c2cc(NCc3ccc(CN4CCOCC4)cc3)c3ccccc3n2)cc1 [Compound I211, [2-(4-methoxyphenyl)(4-quinolyl)]{[4-(morpholin-4-ylmethyl)phenyl]methyl}amine]",801 to 5000
19,"NC(=O)c1ccc(-c2cc(NCc3ccc(CN4CCOCC4)cc3)c3ccccc3n2)cc1 [Compound I212, 4-[4-({[4-(morpholin-4-ylmethyl)phenyl]methyl}amino)-2-quinolyl]benzamide]",> 5000
20,"NC(=O)c1ccc(-c2cc(NCc3ccc(CN4CCCCC4)cc3)c3ccccc3n2)cc1 [Compound I213, 4-[4-({[4-(piperidylmethyl)phenyl]methyl}amino)-2-quinolyl]benzamide]",> 5000

row,SMILES,IC50 [nM]
1,"CCN1CCN(Cc2ccc(CNc3cc(-c4ccc(C(N)=O)cc4)nc4ccccc34)cc2)CC1 [Compound I214, 4-{4-[({4-[(4-ethylpiperazinyl)methyl]phenyl}methyl)amino]-2-quinolyl}benzamide]",> 5000
2,"CCN1CCN(Cc2ccc(Nc3cc(-c4ccc(C(N)=O)cc4)nc4ccccc34)cc2)CC1 [Compound I215, 4-[4-({4-[(4-ethylpiperazinyl)methyl]phenyl}amino)-2-quinolyl]benzamide]",> 5000
3,"NC(=O)c1ccc(-c2cc(Nc3ccc(CCN4CCNCC4)cc3)c3ccccc3n2)cc1 [Compound I216, 4-(4-{[4-(2-piperazinylethyl)phenyl]amino}-2-quinolyl)benzamide]",> 5000
4,"CN(C)CCc1ccc(Nc2cc(-c3ccc(C(N)=O)cc3)nc3ccccc23)cc1 [Compound I217, 4-[4-({4-[2-(dimethylamino)ethyl]phenyl}amino)-2-quinolyl]benzamide]",> 5000
5,"CCN(CC)CCCNc1cc(-c2ccc(C(N)=O)cc2)nc2ccccc12 [Compound I218, 4-(4-{[3-(diethylamino)propyl]amino}-2-quinolyl)benzamide]",> 5000
6,"NC(=O)c1ccc(-c2cc(NCCCN3CCCCCC3)c3ccccc3n2)cc1 [Compound I219, 4-{4-[(3-azaperhydroepinylpropyl)amino]-2-quinolyl}benzamide]",> 5000
7,"NC(=O)c1ccc(-c2cc(Nc3ccc(CC4CCNCC4)cc3)c3ccccc3n2)cc1 [Compound I220, 4-(4-{[4-(4-piperidylmethyl)phenyl]amino}-2-quinolyl)benzamide]",> 5000
8,O=C1Cc2ccc(-c3cc(NCCCN4CCCCC4)c4ccccc4n3)cc2N1 [Compound I221],801 to 5000
9,"NC(=O)c1ccc(-c2cc(N3CCC(Cc4ccc(N)cc4)CC3)c3ccccc3n2)cc1 [Compound I222, 4-(4-{4-[(4-aminophenyl)methyl]piperidyl}-2-quinolyl)benzamide]",> 5000
10,Fc1cccc(-c2cc(NCCCN3CCCCC3)c3ccccc3n2)c1C(F)(F)F [Compound I223],801 to 5000
11,c1ccc2c(NCCCN3CCCCC3)cc(-c3ccc4scnc4c3)nc2c1 [Compound I224],801 to 5000
12,Fc1ccc(-c2ccc(-c3cc(NCCCN4CCCCC4)c4ccccc4n3)cc2)cc1 [Compound I225],801 to 5000
13,CC(C)CNC(=O)c1ccc(-c2cc(NCCCN3CCCCC3)c3ccccc3n2)cc1 [Compound I226],801 to 5000
14,O=C(NCCO)c1ccc(-c2cc(NCCCN3CCCCC3)c3ccccc3n2)cc1 [Compound I227],801 to 5000
15,CCNC(=O)c1ccc(-c2cc(NCCCN3CCCCC3)c3ccccc3n2)cc1F [Compound I229],801 to 5000
16,O=C(NC1CCCCC1)c1ccc(-c2cc(NCCCN3CCCCC3)c3ccccc3n2)cc1 [Compound I230],801 to 5000
17,CC(=O)Nc1ccc(-c2cc(NCCCN3CCCCC3)c3ccccc3n2)cc1F [Compound I232],801 to 5000
18,O=S(=O)(c1ccccc1-c1cc(NCCCN2CCCCC2)c2ccccc2n1)N1CCOCC1 [Compound I233],> 5000
